From article PMC8126888 (RSC Medicinal Chemistry, 2020)
Like-named read-outs stand apart in the source and are kept apart here.

How the values were obtained:
[1] = test system: primary peritoneal mouse macrophages (PMM); test: cells; conditions: Macrophage, read-out: PMM IC50
[2] = in vitro; conditions: human, microsomes, pH 7.4, HLM CLint, human liver microsomes
[3] = in vitro; conditions: mouse, microsomes, pH 7.4, MLM CLint, mouse liver microsomes
[4] = physchem; conditions: HPLC, Ascentis Express RP Amide column, pH 7.4, eLogD, experimental
[5] = in vitro; conditions: human
[6] = in vitro; conditions: PAMPA
[7] = test system: Leishmania infantum MHOM/MA(BE)/67/ITMAP263 intracellular amastigotes; test: microbe, parasite or virus in culture; conditions: Macrophage, in Mus musculus
[8] = test system: Trypanosoma cruzi, Tulahuen CL2, beta-galactosidase strain; test: microbe, parasite or virus in culture; conditions: MRC5, read-out: T. cruzi Tulahuen C4 (LacZ) IC50
[9] = read-out: L. Inf. pIC50, from L. infantum intracellular amastigote IC50 (converted)
[10] = read-out: L. infantum MHOM/MA(BE)/67/ITMAP263 intracellular amastigotes IC50, intracellular amastigotes

SMILES	IC50 [1]	microsomal CLint at 0.5 μM [2]	microsomal CLint at 0.5 μM [3]	chromatographic logD [4]	CC50 at 3 days [5]	Papp [6]	IC50 [7, 9]	IC50 [7, 10]	IC50 [8]
O=S(=O)(NC(CO)Cc1ccccc1)c1ccccc1Br (stereo not drawn) [DNDI0003369449]	> 64 µM	244 µL/min/mg	1370 µL/min/mg	3	> 64 µM	17.4 ×10⁻⁶ cm/s	> 64 µM	> 64 µM	33.4 µM
O=S(=O)(c1cc(F)ccc1F)N(Cc1ccccc1)C(CO)CO [DNDI0003369448]	> 64 µM	< 23 µL/min/mg	97 µL/min/mg	2.9	> 64 µM	11.2 ×10⁻⁶ cm/s	57.5 µM	57 µM	31.6 µM
COc1ncccc1S(=O)(=O)N(Cc1ccccc1)Cc1ccccc1 [DNDI0003368299]	> 64 µM	849 µL/min/mg	–	–	3.81 µM	2.05 ×10⁻⁶ cm/s	0.646 µM	0.64 µM	6.34 µM
COC(=O)[C@H](CO)NS(=O)(=O)c1cc(Cl)ccc1OC [DNDI0003369004]	> 64 µM	112 µL/min/mg	230 µL/min/mg	1.8	> 64 µM	9.07 ×10⁻⁶ cm/s	> 64 µM	> 64 µM	> 64 µM
CN(C)CCN(Cc1ccccc1)S(=O)(=O)c1ccccc1S(C)(=O)=O [DNDI0003367255]	> 64 µM	–	–	2.6	> 64 µM	2.04 ×10⁻⁶ cm/s	> 64 µM	> 64 µM	> 64 µM
COc1ncccc1S(=O)(=O)N(Cc1ccc(F)cc1)Cc1ccccn1 [DNDI0003370084]	> 64 µM	696 µL/min/mg	4620 µL/min/mg	3.5	> 64 µM	27.4 ×10⁻⁶ cm/s	7.41 µM	7.39 µM	33.6 µM
CN(C)CCN(Cc1ccccc1)S(=O)(=O)c1ccc(NC(=O)CCCO)cc1 [DNDI0003368293]	> 64 µM	< 23 µL/min/mg	–	2.9	> 64 µM	0.21 ×10⁻⁶ cm/s	> 64 µM	> 64 µM	> 64 µM
CN(C)CCOc1ccc(F)cc1S(=O)(=O)N(Cc1ccc(F)cc1)Cc1ccc(F)cc1 [DNDI0003371161]	8 µM	214 µL/min/mg	845 µL/min/mg	4.9	7.62 µM	0.06 ×10⁻⁶ cm/s	2.19 µM	2.19 µM	2.17 µM
COc1ccc(S(=O)(=O)N(Cc2ccccc2)Cc2ccccc2)cc1 [DNDI0003367309]	> 64 µM	184 µL/min/mg	2410 µL/min/mg	–	> 64 µM	1 ×10⁻⁶ cm/s	45.7 µM	45.4 µM	> 64 µM
O=S1(=O)NC(Cc2ccccc2)COc2ccc(F)cc21 (stereo not drawn) [DNDI0003368460]	> 64 µM	–	–	3.3	> 64 µM	26.2 ×10⁻⁶ cm/s	> 64 µM	> 64 µM	> 64 µM
COc1ccc(C(=O)N2CCOCC2)cc1S(=O)(=O)N(Cc1ccccc1)Cc1ccccc1 [DNDI0003368296]	45.2 µM	810 µL/min/mg	–	–	> 64 µM	6.19 ×10⁻⁶ cm/s	0.457 µM	0.46 µM	> 64 µM
COc1ccc(C(=O)O)cc1S(=O)(=O)N(Cc1ccccc1)Cc1ccccc1 [DNDI0003368287]	> 64 µM	< 23 µL/min/mg	–	–	> 64 µM	17.8 ×10⁻⁶ cm/s	57.5 µM	57 µM	> 64 µM
COc1ccc(C(=O)N2CCCC2)cc1S(=O)(=O)N(Cc1ccccc1)Cc1ccccc1 [DNDI0003368297]	32 µM	796 µL/min/mg	–	4.1	> 64 µM	4.91 ×10⁻⁶ cm/s	0.49 µM	0.48 µM	> 64 µM
C=C(c1ccc(F)cc1)N(Cc1ccccc1)S(=O)(=O)c1cc(Cl)ccc1O [DNDI0003371156]	8 µM	–	–	5.1	3.61 µM	1.41 ×10⁻⁶ cm/s	7.41 µM	7.44 µM	2.26 µM
